# US20220143003A1, “COMPOSITIONS AND METHODS TO TREAT NON-ALCOHOLIC FATTY LIVER DISEASES (NAFLD)” (Coherus Biosciences, Inc., priority 2018, published 2022)
# Test system: DIO-NASH mice
# Test: Plasma urea at termination
# Format: in vivo, male C57BL/6JRj mice
# Conditions: termination; group mean; CHS-131 High dose (alone or combined)
# Protocol: For plasma biochemistry, tail blood was drawn directly through the capillary of a Microvette/Vacuette of the right dimension and anticoagulant and mixed by inversion 5 times. Blood was placed at 4° C. until centrifugation at 3000×g for 10 minutes at 4° C. The plasma supernatants were transferred to new tubes and immediately frozen on dry ice and stored at −80° C. until analysis.
# Mouse insulin was measured in single determinations using the MSD platform (Meso Scale Diagnostics).
# Plasma urea at termination (mmol/L). Values expressed as mean of n=12-14+SEM.
compound,measurement,value
"CCCCCCCCCCCCCCCC(=O)N[C@@H](CCC(=O)NCCCC[C@H](NC(=O)[C@H](C)NC(=O)[C@H](C)NC(=O)[C@H](CCC(N)=O)NC(=O)CNC(=O)[C@H](CCC(=O)O)NC(=O)[C@H](CC(C)C)NC(=O)[C@H](Cc1ccc(O)cc1)NC(=O)[C@H](CO)NC(=O)[C@H](CO)NC(=O)[C@@H](NC(=O)[C@H](CC(=O)O)NC(=O)[C@H](CO)NC(=O)[C@@H](NC(=O)[C@H](Cc1ccccc1)NC(=O)[C@@H](NC(=O)CNC(=O)[C@H](CCC(=O)O)NC(=O)[C@H](C)NC(=O)[C@@H](N)Cc1cnc[nH]1)[C@@H](C)O)[C@@H](C)O)C(C)C)C(=O)N[C@@H](CCC(=O)O)C(=O)N[C@@H](Cc1ccccc1)C(=O)N[C@H](C(=O)N[C@@H](C)C(=O)N[C@@H](Cc1c[nH]c2ccccc12)C(=O)N[C@@H](CC(C)C)C(=O)N[C@H](C(=O)N[C@@H](CCCNC(=N)N)C(=O)NCC(=O)N[C@@H](CCCNC(=N)N)C(=O)NCC(=O)O)C(C)C)[C@@H](C)CC)C(=O)O [Liraglutide, reference compound]",Plasma urea at termination,7.86 mmol/L
